The subject of data set [1] is total number of colonies of the Chinese tube whip shrimps. The experiment in a line: Total sterilization effect experiment: total number of colonies (aerobic plate count) of photodynamically treated shrimp in 4° C. storage. The format is cell-based. The following applies: 20 μmol/L. The procedure:
The total sterilization effect experiment and sensory evaluation of the Chinese tube whip shrimps obtained from Application Example 1, Comparative Application Example 1, and Comparative Application Example 2 were carried out. The specific steps are as follows: • (1) the Chinese tube whip shrimps obtained from Application Example 1, Comparative Application Example 1, and Comparative Application Example 2 were put into a fresh-keeping bag of a fresh-keeping box, and stored in a refrigerator at 4° C.; • (2) when stored for 2, 4, 6, 8, and 10 days, according to the method specified in the national standard GB/T 4789.2-2016 Food Microbiological Examination—Aerobic Plate Count, the total number of colonies of the Chinese tube whip shrimps treated in step (1) was measured; and • (3) when stored for 2, 4, 6, 8, and 10 days, a sensory evaluation team conducted sensory scores on the stored shrimps; the sensory score team was composed of 10 strictly trained personnel to evaluate the appearance, odor, and posture of the processed Chinese tube whip shrimps, and the average value was taken. The scoring criteria are shown in Table 1, and the sensory score result is the sum of the 3 indicator scores with a total score of 18 indicating absolute freshness and 9 indicating significant quality deterioration.
From this, it can be seen that the shelf life of refrigerated Chinese tube whip shrimp in Comparative Application Example 1 and Comparative Application Example 2 is only 4 days.

A short description of data set [2]: Singlet oxygen generation ability, ABDA absorbance decay method. The note with it: 5 μmol/L compound, 50 μmol/L ABDA, aqueous solution, blue LED 470 nm, 20 mW/cm^2, 180 s; FIG. 4. The class given is physicochemical.

`COc1cc(/C=C/C(=O)CC(=O)/C=C/c2ccc(O)c(OC)c2)ccc1O` [natural curcumin, curcumin, reference compound]: the “shelf life of refrigerated Chinese tube whip shrimp” value in data set [1] (soaking 10 min, blue LED 10 W, 470 nm, 120 s, stored at 4° C., end of shelf life by total number of colonies) is given as 4 days.

For `COc1cc(/C=C/C=C/C(O)=C/C(=O)/C=C/c2ccc(Br)c(OC)c2)ccc1Br` [Embodiment 1], in data set [1] (soaking 10 min, blue LED 10 W, 470 nm, 120 s, stored at 4° C. for 2-10 days, vs Comparative Application Examples 1 and 2, p<0.05, FIG. 6), the “bacterial growth (total number of colonies)” value is “significantly inhibited”. The “freshness level by total number of colonies” value is “approached second-level freshness” in data set [1] (after 10 days of refrigeration at 4° C., blue LED 10 W, 470 nm, 120 s) and “first-level freshness (the shrimp with a total number of colonies of ≤10^5 CFU/g is considered as first-level freshness)” in data set [1] (on the 4th day of refrigeration at 4° C., blue LED 10 W, 470 nm, 120 s). For the same compound, the “shelf life of fresh shrimp (in words)” value in data set [1] (photodynamic treatment of Chinese tube whip shrimp, stored at 4° C.) was “significantly prolonged”. For the same compound, in data set [2], the “singlet oxygen generation ability” value was “higher than that of the single bromine substituted curcumin derivative obtained in Embodiment 2”.

The values above are taken from patent US20240279149A1 (ZHEJIANG OCEAN UNIVERSITY, priority 2021, published 2024).
